Results: ChEMBL document CHEMBL4330132, “5-Keto-3-cyano-2,4-diaminothiophenes as selective maternal embryonic leucine zipper kinase inhibitors” (Bioorg Med Chem Lett, 2019)

Experiments:
[1] = molecular target: Mitogen-activated protein kinase 9 (Homo sapiens) (UniProt P45984); test: Binding affinity to wild-type human full length JNK2 (M1 to Q382 residues) expressed in mammalian expression system assessed as residual binding level at 1 uM by Kinomescan method relative to control
[2] = molecular target: Serine/threonine-protein kinase MARK2 (Homo sapiens) (UniProt Q7KZI7); test: Binding affinity to wild-type human partial length MARK2 (M1 to R450 residues) expressed in bacterial expression system assessed as residual binding level at 1 uM by Kinomescan method relative to control
[3] = molecular target: Cyclin-dependent kinase-like 2 (Homo sapiens) (UniProt Q92772); test: Binding affinity to wild-type human partial length CDKL2 (M1 to D327 residues) expressed in bacterial expression system assessed as residual binding level at 1 uM by Kinomescan method relative to control
[4] = tested on: Epidermal growth factor receptor (Homo sapiens), P00533 [G719S]; test: Binding affinity to human partial length EGFR G719S mutant (R669 to V1011 residues) expressed in bacterial expression system assessed as residual binding level at 1 uM by Kinomescan method relative to control
[5] = molecular target: Dual specificity tyrosine-phosphorylation-regulated kinase 1A (Homo sapiens) (UniProt Q13627); test: Binding affinity to wild-type human partial length DYRK1A (H129 to S509 residues) expressed in mammalian expression system assessed as residual binding level at 1 uM by Kinomescan method relative to control
[6] = molecular target: Wee1-like protein kinase (Homo sapiens) (UniProt P30291); test: Binding affinity to wild-type human partial length WEE1 (M291 to K575 residues) expressed in bacterial expression system assessed as residual binding level at 1 uM by Kinomescan method relative to control
[7] = molecular target: Ephrin type-A receptor 8 (Homo sapiens) (UniProt P29322); test: Binding affinity to wild-type human partial length EPHA8 (Q608 to C920 residues) expressed in bacterial expression system assessed as residual binding level at 1 uM by Kinomescan method relative to control
[8] = molecular target: Mitogen-activated protein kinase kinase kinase 6 (Homo sapiens) (UniProt O95382); test: Binding affinity to wild-type human partial length ASK2 (M278 to R972 residues) expressed in mammalian expression system assessed as residual binding level at 1 uM by Kinomescan method relative to control
[9] = tested on: Leucine-rich repeat serine/threonine-protein kinase 2 (Homo sapiens), Q5S007 [G2019S]; test: Binding affinity to human partial length LRRK2 G2019S mutant (H970 to E2527 residues) expressed in mammalian expression system assessed as residual binding level at 1 uM by Kinomescan method relative to control
[10] = molecular target: Serine/threonine-protein kinase Nek5 (Homo sapiens) (UniProt Q6P3R8); test: Binding affinity to wild-type human partial length NEK5 (M1 to M279 residues) expressed in bacterial expression system assessed as residual binding level at 1 uM by Kinomescan method relative to control
[11] = molecular target: Hepatocyte growth factor receptor (Homo sapiens) (UniProt P08581); test: Binding affinity to wild-type human partial length MET (D1010 to S1367 residues) expressed in bacterial expression system assessed as residual binding level at 1 uM by Kinomescan method relative to control
[12] = molecular target: Cyclin-dependent kinase 15 (Homo sapiens) (UniProt Q96Q40); test: Binding affinity to wild-type human full length PFTAIRE2 (M1 to W384 residues) expressed in bacterial expression system assessed as residual binding level at 1 uM by Kinomescan method relative to control
[13] = molecular target: Mitogen-activated protein kinase 11 (Homo sapiens) (UniProt Q15759); test: Binding affinity to wild-type human full length p38-beta (M1 to Q364 residues) expressed in bacterial expression system assessed as residual binding level at 1 uM by Kinomescan method relative to control
[14] = molecular target: Homeodomain-interacting protein kinase 4 (Homo sapiens) (UniProt Q8NE63); test: Binding affinity to wild-type human partial length HIPK4 (M1 to V384 residues) expressed in bacterial expression system assessed as residual binding level at 1 uM by Kinomescan method relative to control
[15] = molecular target: Serine/threonine-protein kinase 17B (Homo sapiens) (UniProt O94768); test: Binding affinity to wild-type human full length DRAK2 (M1 to C372 residues) expressed in bacterial expression system assessed as residual binding level at 1 uM by Kinomescan method relative to control
[16] = molecular target: Serine/threonine-protein kinase 26 (Homo sapiens) (UniProt Q9P289); test: Binding affinity to wild-type human full length MST4 (M1 to P416 residues) expressed in mammalian expression system assessed as residual binding level at 1 uM by Kinomescan method relative to control
[17] = molecular target: Tyrosine-protein kinase Srms (Homo sapiens) (UniProt Q9H3Y6); test: Binding affinity to wild-type human partial length SRMS (L208 to P488 residues) expressed in mammalian expression system assessed as residual binding level at 1 uM by Kinomescan method relative to control
[18] = molecular target: Tyrosine-protein kinase JAK1 (Homo sapiens) (UniProt P23458); test: Binding affinity to wild-type human partial length JAK1 JH2 pseudokinase domain (R537 to D855 residues) expressed in mammalian expression system assessed as residual binding level at 1 uM by Kinomescan method relative to control
[19] = molecular target: Macrophage colony-stimulating factor 1 receptor (Homo sapiens) (UniProt P07333); test: Binding affinity to wild-type human partial length CSF1R (I564 to S939 residues) expressed in bacterial expression system assessed as residual binding level at 1 uM by Kinomescan method relative to control
[20] = molecular target: Ribosomal protein S6 kinase alpha-4 (Homo sapiens) (UniProt O75676); test: Binding affinity to wild-type human partial length N-terminal RPS6KA4 kinase domain 1 expressed in bacterial expression system assessed as residual binding level at 1 uM by Kinomescan method relative to control
[21] = molecular target: Atypical kinase COQ8A, mitochondrial (Homo sapiens) (UniProt Q8NI60); test: Binding affinity to wild-type human full length ADCK3 (M280 to Q647 residues) expressed in bacterial expression system assessed as residual binding level at 1 uM by Kinomescan method relative to control
[22] = tested on: Mast/stem cell growth factor receptor Kit (Homo sapiens), P10721 [UNDEFINED MUTATION]; test: Binding affinity to human partial length KIT V559D/[…] double mutant (Y545 to D952 residues) expressed in bacterial expression system assessed as residual binding level at 1 uM by Kinomescan method relative to control
[23] = tested on: Tyrosine-protein kinase ABL1 (Homo sapiens), P00519 [H396P]; test: Binding affinity to human non-phosphorylated ABL1 H396P mutant (S229 to K512 residues) expressed in mammalian expression system assessed as residual binding level at 1 uM by Kinomescan method relative to control
[24] = molecular target: Activin receptor type-1B (Homo sapiens) (UniProt P36896); test: Binding affinity to wild-type human ACVR1B (S187 to I505 residues) expressed in bacterial expression system assessed as residual binding level at 1 uM by Kinomescan method relative to control

Sequence of Tyrosine-protein kinase JAK1 (Homo sapiens) (P23458 whole entry, the tested form may be a part): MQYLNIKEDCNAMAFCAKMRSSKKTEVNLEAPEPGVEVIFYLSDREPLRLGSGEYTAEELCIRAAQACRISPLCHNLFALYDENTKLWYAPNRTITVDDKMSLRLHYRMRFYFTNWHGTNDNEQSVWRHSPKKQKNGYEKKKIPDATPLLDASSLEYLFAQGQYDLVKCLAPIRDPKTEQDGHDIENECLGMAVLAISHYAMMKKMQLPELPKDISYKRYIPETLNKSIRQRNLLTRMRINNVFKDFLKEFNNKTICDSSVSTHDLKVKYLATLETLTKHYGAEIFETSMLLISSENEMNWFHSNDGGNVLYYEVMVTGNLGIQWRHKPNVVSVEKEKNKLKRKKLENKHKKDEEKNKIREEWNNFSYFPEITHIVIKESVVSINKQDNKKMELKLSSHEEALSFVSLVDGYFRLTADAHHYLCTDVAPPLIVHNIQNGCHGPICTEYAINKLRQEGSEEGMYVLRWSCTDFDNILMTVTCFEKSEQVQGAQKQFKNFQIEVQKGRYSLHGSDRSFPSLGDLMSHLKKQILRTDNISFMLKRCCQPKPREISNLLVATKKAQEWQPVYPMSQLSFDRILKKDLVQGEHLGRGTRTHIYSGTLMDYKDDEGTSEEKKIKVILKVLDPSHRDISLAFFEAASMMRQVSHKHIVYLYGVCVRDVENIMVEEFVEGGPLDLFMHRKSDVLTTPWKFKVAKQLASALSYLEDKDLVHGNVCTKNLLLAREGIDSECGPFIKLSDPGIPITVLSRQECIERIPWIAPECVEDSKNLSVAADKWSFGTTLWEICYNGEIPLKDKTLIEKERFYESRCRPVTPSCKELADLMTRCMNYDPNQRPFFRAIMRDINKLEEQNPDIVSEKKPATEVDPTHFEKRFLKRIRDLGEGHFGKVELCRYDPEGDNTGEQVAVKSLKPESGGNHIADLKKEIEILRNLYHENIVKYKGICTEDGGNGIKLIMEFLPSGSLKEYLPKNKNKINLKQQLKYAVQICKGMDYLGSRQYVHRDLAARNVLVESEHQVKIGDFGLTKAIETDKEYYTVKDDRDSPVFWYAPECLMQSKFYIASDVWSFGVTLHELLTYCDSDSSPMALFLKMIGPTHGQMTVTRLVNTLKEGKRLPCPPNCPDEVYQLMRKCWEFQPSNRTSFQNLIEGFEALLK
Sequence of Ephrin type-A receptor 8 (Homo sapiens) (P29322 whole entry, the tested form may be a part): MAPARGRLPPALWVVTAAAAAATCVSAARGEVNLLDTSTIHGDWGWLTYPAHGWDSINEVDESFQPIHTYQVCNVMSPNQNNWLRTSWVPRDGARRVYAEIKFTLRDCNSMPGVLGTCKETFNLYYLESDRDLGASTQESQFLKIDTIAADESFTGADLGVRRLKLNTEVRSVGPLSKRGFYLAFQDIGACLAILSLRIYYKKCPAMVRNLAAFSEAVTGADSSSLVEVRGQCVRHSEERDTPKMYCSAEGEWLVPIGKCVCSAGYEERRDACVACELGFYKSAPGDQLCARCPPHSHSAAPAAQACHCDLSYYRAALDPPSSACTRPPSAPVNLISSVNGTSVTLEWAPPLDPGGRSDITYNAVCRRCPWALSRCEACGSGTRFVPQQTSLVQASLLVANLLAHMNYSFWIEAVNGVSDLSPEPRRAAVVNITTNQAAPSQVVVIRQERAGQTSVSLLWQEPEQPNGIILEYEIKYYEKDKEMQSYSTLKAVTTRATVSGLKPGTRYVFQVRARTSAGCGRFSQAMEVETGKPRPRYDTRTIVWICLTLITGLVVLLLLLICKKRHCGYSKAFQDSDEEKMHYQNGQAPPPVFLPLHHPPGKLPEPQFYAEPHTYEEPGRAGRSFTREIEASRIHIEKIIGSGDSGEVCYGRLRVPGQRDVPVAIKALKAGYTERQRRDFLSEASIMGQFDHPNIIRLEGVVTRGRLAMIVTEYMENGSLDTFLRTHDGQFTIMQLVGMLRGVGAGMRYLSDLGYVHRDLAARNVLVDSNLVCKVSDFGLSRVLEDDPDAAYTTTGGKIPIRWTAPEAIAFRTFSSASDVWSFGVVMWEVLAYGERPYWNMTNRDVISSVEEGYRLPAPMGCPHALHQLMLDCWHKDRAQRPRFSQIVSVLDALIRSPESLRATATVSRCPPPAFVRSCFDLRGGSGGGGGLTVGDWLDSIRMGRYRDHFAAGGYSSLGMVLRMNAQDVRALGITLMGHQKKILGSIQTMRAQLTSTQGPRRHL
Sequence of Homeodomain-interacting protein kinase 4 (Homo sapiens) (Q8NE63 whole entry, the tested form may be a part): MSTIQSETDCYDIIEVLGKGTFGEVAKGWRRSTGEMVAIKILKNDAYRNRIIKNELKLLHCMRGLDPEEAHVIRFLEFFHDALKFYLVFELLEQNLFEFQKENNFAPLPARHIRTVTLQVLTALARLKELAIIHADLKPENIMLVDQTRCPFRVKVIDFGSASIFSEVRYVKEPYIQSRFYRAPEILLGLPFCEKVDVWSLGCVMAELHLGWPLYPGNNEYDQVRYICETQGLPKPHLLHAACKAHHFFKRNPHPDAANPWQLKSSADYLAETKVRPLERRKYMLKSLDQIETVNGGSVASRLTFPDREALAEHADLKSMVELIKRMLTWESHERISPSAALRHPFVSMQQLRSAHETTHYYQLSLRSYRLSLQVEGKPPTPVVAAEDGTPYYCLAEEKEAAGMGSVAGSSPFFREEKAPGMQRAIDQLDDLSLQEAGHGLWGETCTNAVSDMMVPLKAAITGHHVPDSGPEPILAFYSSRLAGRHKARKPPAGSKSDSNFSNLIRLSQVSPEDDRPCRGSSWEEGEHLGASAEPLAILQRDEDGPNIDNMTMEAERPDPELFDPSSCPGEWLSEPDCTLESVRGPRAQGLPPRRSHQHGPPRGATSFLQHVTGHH
Sequence of Ribosomal protein S6 kinase alpha-4 (Homo sapiens) (O75676 whole entry, looked up, the tested form may be a part): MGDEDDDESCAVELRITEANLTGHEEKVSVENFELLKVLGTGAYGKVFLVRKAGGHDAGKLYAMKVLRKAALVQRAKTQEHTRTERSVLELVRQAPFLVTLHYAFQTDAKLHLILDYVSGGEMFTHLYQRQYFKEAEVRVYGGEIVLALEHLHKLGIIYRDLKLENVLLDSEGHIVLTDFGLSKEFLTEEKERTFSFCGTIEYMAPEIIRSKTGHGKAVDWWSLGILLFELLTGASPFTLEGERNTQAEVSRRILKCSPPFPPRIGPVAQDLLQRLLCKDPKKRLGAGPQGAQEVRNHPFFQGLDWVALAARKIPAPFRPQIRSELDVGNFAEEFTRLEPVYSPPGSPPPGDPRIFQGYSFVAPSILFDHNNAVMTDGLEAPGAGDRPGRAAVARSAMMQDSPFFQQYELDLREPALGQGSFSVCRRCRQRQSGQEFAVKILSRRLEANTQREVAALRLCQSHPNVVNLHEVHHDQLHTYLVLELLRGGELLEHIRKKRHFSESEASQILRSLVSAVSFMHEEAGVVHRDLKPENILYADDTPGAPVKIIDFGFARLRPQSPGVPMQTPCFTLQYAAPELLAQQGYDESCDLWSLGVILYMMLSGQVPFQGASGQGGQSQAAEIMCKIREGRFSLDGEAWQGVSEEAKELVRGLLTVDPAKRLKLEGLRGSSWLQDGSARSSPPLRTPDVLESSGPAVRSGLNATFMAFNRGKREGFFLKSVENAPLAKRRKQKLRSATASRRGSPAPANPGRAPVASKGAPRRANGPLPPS
Sequence of Mitogen-activated protein kinase kinase kinase 6 (Homo sapiens) (O95382 whole entry, the tested form may be a part): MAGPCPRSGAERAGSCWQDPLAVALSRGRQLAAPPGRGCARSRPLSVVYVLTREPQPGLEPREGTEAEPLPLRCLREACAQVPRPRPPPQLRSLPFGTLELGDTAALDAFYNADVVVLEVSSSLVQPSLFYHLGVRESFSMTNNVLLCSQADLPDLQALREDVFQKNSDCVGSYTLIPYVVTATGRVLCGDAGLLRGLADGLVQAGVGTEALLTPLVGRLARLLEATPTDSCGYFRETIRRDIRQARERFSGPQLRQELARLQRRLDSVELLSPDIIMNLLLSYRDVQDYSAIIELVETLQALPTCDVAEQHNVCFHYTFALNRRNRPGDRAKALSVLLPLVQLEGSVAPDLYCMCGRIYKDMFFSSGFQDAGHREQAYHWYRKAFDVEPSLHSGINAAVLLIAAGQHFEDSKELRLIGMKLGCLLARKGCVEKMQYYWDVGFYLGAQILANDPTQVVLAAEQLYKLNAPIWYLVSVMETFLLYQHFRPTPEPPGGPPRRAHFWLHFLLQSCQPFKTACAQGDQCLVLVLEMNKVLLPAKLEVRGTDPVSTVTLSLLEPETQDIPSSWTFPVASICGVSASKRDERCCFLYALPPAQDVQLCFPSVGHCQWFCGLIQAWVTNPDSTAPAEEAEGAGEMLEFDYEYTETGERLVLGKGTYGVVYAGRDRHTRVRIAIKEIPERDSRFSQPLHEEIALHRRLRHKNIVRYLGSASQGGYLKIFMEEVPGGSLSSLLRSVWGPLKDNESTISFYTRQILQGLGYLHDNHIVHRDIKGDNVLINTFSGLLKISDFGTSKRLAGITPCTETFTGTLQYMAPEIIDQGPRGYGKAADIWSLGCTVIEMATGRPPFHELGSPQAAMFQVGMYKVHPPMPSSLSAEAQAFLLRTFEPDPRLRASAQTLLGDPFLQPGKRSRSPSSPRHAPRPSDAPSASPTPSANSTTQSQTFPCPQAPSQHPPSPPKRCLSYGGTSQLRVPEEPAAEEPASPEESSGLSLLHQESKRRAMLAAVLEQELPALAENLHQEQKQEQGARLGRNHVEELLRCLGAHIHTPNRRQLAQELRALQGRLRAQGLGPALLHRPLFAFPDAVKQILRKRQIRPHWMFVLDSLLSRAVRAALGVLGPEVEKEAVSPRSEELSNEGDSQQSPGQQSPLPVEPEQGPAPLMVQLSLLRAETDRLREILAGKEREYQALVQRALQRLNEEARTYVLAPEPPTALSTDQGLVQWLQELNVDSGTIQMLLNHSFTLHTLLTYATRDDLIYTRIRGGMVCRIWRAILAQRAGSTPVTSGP

SMILES: CC(C)Nc1sc(C(=O)c2ccc(Cl)s2)c(N)c1C#N
- Activity [1]: 100%
- Activity [2]: 91%
- Activity [3]: 80%
- Activity [4]: 96%
- Activity [5]: 100%
- Activity [6]: 94%
- Activity [7]: 86%
- Activity [8]: 100%
- Activity [9]: 79%
- Activity [10]: 91%
- Activity [11]: 68%
- Activity [12]: 79%
- Activity [13]: 83%
- Activity [14]: 80%
- Activity [15]: 37%
- Activity [16]: 100%
- Activity [17]: 91%
- Activity [18]: 89%
- Activity [19]: 97%
- Activity [20]: 100%
- Activity [21]: 93%
- Activity [22]: 57%
- Activity [23]: 100%
- Activity [24]: 82%
